Consider three compounds from patent USRE39866E1 (Telik, Inc., priority 1997, dated 2007).

Assay [1] addresses T1, recombinantly produced β chain lacking the insulin-binding domain (Homo sapiens, UniProt P06213).
T1 construct: purchased Stratagene, Inc
Briefly: phosphorylation of substrate peptide Raytide by recombinant beta chain kinase. Type of assay: biochemical. The conditions noted are these: 25 μM. How it is done:
The ability of this kinase to phosphorylate a substrate peptide (Raytide from Oncogene Sciences) is stimulated by TER12 at 25 μM.

The next assay addresses T2, human insulin receptor (Homo sapiens, UniProt P06213).
T2 construct: partially purified from placental extracts or from cell line IM-9; from tissue; host or cells: human placental extracts or cell line IM-9
Kind of assay: phosphorylation of artificial substrate poly(Glu4Tyr) by activated receptor, labeled ATP. Type of assay: biochemical.

Assay [2] deals with T3, human insulin receptors (hIR) (Homo sapiens, UniProt P06213).
T3 construct: partially purified from placental extracts or from cell line IM-9; from tissue; host or cells: human placental extracts or cell line IM-9
T3 sequence (P06213 763-1382 limits assumed): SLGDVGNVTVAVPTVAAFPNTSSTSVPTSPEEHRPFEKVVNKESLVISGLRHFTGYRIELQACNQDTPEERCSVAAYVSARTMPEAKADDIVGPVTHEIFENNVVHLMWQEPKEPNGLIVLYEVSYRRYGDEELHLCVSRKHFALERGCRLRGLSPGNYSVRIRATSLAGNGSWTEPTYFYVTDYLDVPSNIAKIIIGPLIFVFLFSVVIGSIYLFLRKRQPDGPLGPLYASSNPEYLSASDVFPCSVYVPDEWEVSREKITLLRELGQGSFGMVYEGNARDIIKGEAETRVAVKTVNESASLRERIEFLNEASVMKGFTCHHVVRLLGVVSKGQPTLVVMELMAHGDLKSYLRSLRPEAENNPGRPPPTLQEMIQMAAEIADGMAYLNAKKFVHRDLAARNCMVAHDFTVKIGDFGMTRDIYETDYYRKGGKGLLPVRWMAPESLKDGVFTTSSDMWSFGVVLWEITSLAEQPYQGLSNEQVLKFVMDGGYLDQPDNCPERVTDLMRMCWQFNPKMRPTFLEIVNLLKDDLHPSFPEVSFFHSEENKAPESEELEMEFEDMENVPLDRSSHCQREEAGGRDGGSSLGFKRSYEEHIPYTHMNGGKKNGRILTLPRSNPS
T3 sequence (P06213 28-758 partner limits assumed): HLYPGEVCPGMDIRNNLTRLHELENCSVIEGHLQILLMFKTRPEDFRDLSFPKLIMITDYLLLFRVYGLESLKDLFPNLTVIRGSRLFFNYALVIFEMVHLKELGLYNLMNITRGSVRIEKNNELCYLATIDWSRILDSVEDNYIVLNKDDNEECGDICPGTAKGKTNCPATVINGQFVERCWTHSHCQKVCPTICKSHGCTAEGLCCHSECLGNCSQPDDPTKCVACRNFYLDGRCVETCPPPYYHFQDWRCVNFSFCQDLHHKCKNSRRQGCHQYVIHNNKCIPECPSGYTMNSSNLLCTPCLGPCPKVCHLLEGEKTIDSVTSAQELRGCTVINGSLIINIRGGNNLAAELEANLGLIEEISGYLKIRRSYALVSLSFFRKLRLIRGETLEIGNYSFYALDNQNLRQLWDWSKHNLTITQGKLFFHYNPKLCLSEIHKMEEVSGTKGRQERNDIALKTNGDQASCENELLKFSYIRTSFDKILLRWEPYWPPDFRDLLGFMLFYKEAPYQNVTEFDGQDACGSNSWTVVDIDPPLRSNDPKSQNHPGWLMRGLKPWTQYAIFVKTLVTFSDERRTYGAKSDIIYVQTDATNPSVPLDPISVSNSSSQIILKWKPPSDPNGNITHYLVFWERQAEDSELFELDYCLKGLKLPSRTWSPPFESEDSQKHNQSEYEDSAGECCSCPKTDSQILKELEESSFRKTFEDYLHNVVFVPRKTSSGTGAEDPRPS
Briefly: insulin receptor kinase autophosphorylation assay (captured hIR, anti-phosphotyrosine ELISA). Type of assay: biochemical. The settings on record: for agonist activity in IR kinase assay (in words): samples as screened; for activity in IR kinase assay after synthesis or purification: synthesized or extensively purified / HPLC-purified material. How it is done:
This assay is a modified form of that described in Hagino, H. et al. Diabetes (1994) 43:274-280. […] The partially purified hIRs were captured into microplate wells by incubating them for 90 minutes with wells coated with a monoclonal antibody to hIR. […] After 60 minutes, the wells were washed, and then treated for 60 minutes with biotinylated antibody directed against phosphotyrosine (PY-20) and unbound materials again washed away. The wells were then incubated with a conventional streptavidin peroxidase system for 30 minutes to assess the level of phosphorylated tyrosine.
On the technique in general: ELISA stands for enzyme-linked immunosorbent assay.

Assay [3] has as its target T4, insulin receptor on human lymphocytic cell line IM-9 (Homo sapiens, UniProt P06213).
T4 construct: on whole cells, i.e., on the human lymphocytic cell line IM-9; endogenous in cells; host or cells: IM-9 human lymphocytic cell line
Briefly: insulin receptor agonist activity on whole IM-9 cells (lysate ELISA). Type of assay: cell-based. How it is done:
The cells were then lysed in 0.5% Tween 20 and lysates analyzed in an ELISA assay as described in paragraph A, without the steps of incubation with ATP.

Assay [4] relates to 3T3-L1 fibroblast cells. Kind of assay: glucose transport in 3T3-L1 cell line. Type of assay: cell-based. An excerpt:
(§1) Insulin also enhances glucose transport in this cell line.

For assay [5], the system named is 3T3-L1 fibroblast cells. Briefly: differentiation of 3T3-L1 fibroblasts to adipocyte-like morphology (Oil Red O uptake). Type of assay: cell-based.
Text: as §1

For assay [6], the system named is Glut4 transporter in 3T3-L1 adipocytes. Kind of assay: distribution of Glut4 transporter in 3T3-L1 adipocytes (immunofluorescence). Type of assay: cell-based. The settings on record: 15 minutes incubation. From the text: The results were visualized under a fluorescent microscope.

Read-outs that look alike come from different tables or passages of the source.

T2 sequence (P06213 763-1382 limits assumed): as the sequence (P06213 763-1382 limits assumed) above
T2 sequence (P06213 28-758 partner limits assumed): as the sequence (P06213 28-758 partner limits assumed) above
T4 sequence (P06213 763-1382 limits assumed): as the sequence (P06213 763-1382 limits assumed) above
T4 sequence (P06213 28-758 partner limits assumed): as the sequence (P06213 28-758 partner limits assumed) above
T1 sequence (P06213 763-1382 limits assumed): as the sequence (P06213 763-1382 limits assumed) above

With `O=C(Nc1cc(S(=O)(=O)[O-])cc2cc(S(=O)(=O)[O-])c(N=Nc3cc(Nc4nc(Cl)nc(Nc5ccc(S(=O)(=O)[O-])cc5)n4)ccc3S(=O)(=O)[O-])c(O)c12)c1ccccc1.[Na+].[Na+].[Na+].[Na+]` [TER12, Cibacron Brilliant Red 3BA], in assay [1], the “stimulation of kinase phosphorylation of Raytide” value is “stimulated”. Moreover, the entries for the “percent of maximal phosphorylation” value at human insulin receptor (0.5 nM insulin plus 20 μM TER12 sample) and at human insulin receptor (5 nM insulin plus TER12 sample) were 120% and 140%, respectively. Further, the “percent of maximal insulin-stimulated activity” value on human insulin receptor (about 20 μM sample calculated as TER12, no insulin) was 75%. Further, the “increase in phosphorylation on addition to insulin” value in assay [2] (60 μM sample added to hIR contacted with 0.3 nM insulin) is given as “approximately three-fold”. Besides, in assay [2] (absence of insulin, 20 μM of sample composed mainly of TER12), the stimulation of autophosphorylation result is recorded as “over five-fold”. In assay [2] (read-out: EC50 for enhancing insulin stimulation, sample calculated as TER12), the EC50 – broadly, the concentration that produces a half-maximal response – is ~20 µM. Moreover, in assay [2], the “agonist activity in IR kinase assay (in words)” value was “apparent agonist activity”. The “activity in IR kinase assay after synthesis or purification” value in assay [2] is listed as “active”. In assay [3] (5 minutes exposure, sample containing 20 μM TER12), the “increase of basal insulin receptor kinase activity” value is “two-fold”. The “increase of insulin stimulated insulin receptor kinase activity” value in assay [3] (5 minutes exposure, sample containing 20 μM TER12, with insulin) is recorded as “five-fold”. For the same compound, the “stimulation of glucose transport” value with 3T3-L1 fibroblast cells [4] (sample alone) is given as “failed to stimulate glucose transport significantly”. Also, in the assay with 3T3-L1 fibroblast cells [4] (with insulin), the “effect on insulin-stimulated glucose transport” value was “enhanced the ability of insulin to do so”. Further, the “effect on insulin-induced differentiation” value in the assay with 3T3-L1 fibroblast cells [5] (20 μM with insulin) is “enhances the differentiating effect of insulin”. For the same compound, in the assay with 3T3-L1 fibroblast cells [5] (sample alone), the effect on differentiation entry is on record as “does not appear to effect differentiation”.

For the compound `COc1ccccc1NC(=O)C(N=Nc1ccc(-c2nc3ccc(C)c(S(=O)(=O)[O-])c3s2)cc1S(=O)(=O)[O-])C(C)=O.[Na+].[Na+]` (stereo not drawn) [TER3938, Direct Yellow 27], the “activity in IR kinase assay of insoluble compound” value in assay [2] (insoluble compound after washing sample with aqueous sodium carbonate) is listed as “less active”. In assay [2] (read-out: EC50 in in vitro autophosphorylation assay), the half-maximal effective concentration (EC50) was found to be 8 µM. Also, in assay [2], the “agonist activity in IR kinase assay (in words)” value is listed as “agonist activity” and the “activity in IR kinase assay after synthesis or purification” value is listed as “retained its activity”. Moreover, the “enhancement of insulin-stimulated autophosphorylation of insulin receptor” value in assay [3] (intact IM-9 cells) is “enhanced the activity of insulin”.

Regarding insulin, in assay [6], the “redistribution of Glut4” value was “dramatic redistribution of Glut4 to the membrane surfaces”.
